The text below walks through data of PubChem BioAssay AID1259411 (Chemical Carcinogenesis Research Information System (CCRIS), 2018).

The source made the active and inactive calls. How the calls were made is not given here.

This data set concerns rodent carcinogenicity bioassays, tumor incidence. The data set can be described thus: CCRIS carcinogenicity studies. In outline:
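NCI-built, expert-reviewed records of carcinogenicity and related test outcomes (mutagenicity, tumor promotion/inhibition) compiled from published and report sources, historical span 1985-2011, not updated.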

In the case of `OC[C@@H](O)[C@@H](O[C@@H]1O[C@H](CO)[C@H](O)[C@H](O)[C@H]1O)[C@H](O)[C@@H](O)CO`, the carcinogen call is, setting by setting: (Species: MOUSE, Strain/Sex: CPB:SWISS/FEMALE, Route: ORAL, Dose: 0, 2, 5, 10% IN DIET FOR 104 WK (STUDY DURATION: 734 D), Dose: 0, 2, 5, 10% IN DIET FOR 104 WK (STUDY DURATION: 734 D)) “inactive; negative”; (Species: MOUSE, Strain/Sex: CPB:SWISS/MALE, Route: ORAL, Dose: 0, 2, 5, 10% IN DIET FOR 104 WK (STUDY DURATION: 730 D), Dose: 0, 2, 5, 10% IN DIET FOR 104 WK (STUDY DURATION: 730 D)) “inactive; negative”; (Species: RAT, Strain/Sex: SPF/FEMALE, Route: ORAL, Dose: 0, 2, 5, 10% IN DIET FOR DURATION OF STUDY ADMINISTERED TO OFFSPRING OF RATS FED THE SAME DIETS (STUDY DURATION: 130 WK), Dose: 0, 2, 5, 10% IN DIET FOR DURATION OF STUDY ADMINISTERED TO OFFSPRING OF RATS FED THE SAME DIETS (STUDY DURATION: 130 WK)) “inactive; negative”; (Species: RAT, Strain/Sex: SPF/MALE, Route: ORAL, Dose: 0, 2, 5, 10% IN DIET FOR DURATION OF STUDY ADMINISTERED TO OFFSPRING OF RATS FED THE SAME DIETS (STUDY DURATION: 130 WK), Dose: 0, 2, 5, 10% IN DIET FOR DURATION OF STUDY ADMINISTERED TO OFFSPRING OF RATS FED THE SAME DIETS (STUDY DURATION: 130 WK), Tumor Site: Type of Lesion: TESTES: LEYDIG CELL TUMOR) “active; positive”.
`N[C@@H](CC(=O)O)C(=O)O`: the carcinogen call was “inactive; negative” (Species: RAT, Strain/Sex: F344/FEMALE, Route: ORAL, Dose: 0, 2.5, 5% IN DRINKING WATER FOR 100 WK (STUDY DURATION: 100 WK), Dose: 0, 2.5, 5% IN DRINKING WATER FOR 100 WK (STUDY DURATION: 100 WK)) and “inactive; negative” (Species: RAT, Strain/Sex: F344/MALE, Route: ORAL, Dose: 0, 2.5, 5% IN DRINKING WATER FOR 100 WK (STUDY DURATION: 100 WK), Dose: 0, 2.5, 5% IN DRINKING WATER FOR 100 WK (STUDY DURATION: 100 WK)).
Consider `OCl`, for which the carcinogen call (Species: RAT, Strain/Sex: SPRAGUE-DAWLEY/FEMALE, Route: ORAL, Dose: 0, 100, 500, 750 MG/L IN DRINKING WATER FOR 104 WK (STUDY DURATION: LIFETIME), Dose: 0, 100, 500, 750 MG/L IN DRINKING WATER FOR 104 WK (STUDY DURATION: LIFETIME), Tumor Site: Type of Lesion: LYMPHATIC SYSTEM: LYMPHOMA OR LEUKEMIA) was “active; positive” and the carcinogen call (Species: RAT, Strain/Sex: SPRAGUE-DAWLEY/MALE, Route: ORAL, Dose: 0, 100, 500, 750 MG/L IN DRINKING WATER FOR 104 WK (STUDY DURATION: LIFETIME), Dose: 0, 100, 500, 750 MG/L IN DRINKING WATER FOR 104 WK (STUDY DURATION: LIFETIME)) is “inactive; negative”.
On to `CCCCC(CC)COS(=O)(=O)O` (stereo unspecified), for which the carcinogen call is “active; positive” (Species: MOUSE, Strain/Sex: B6C3F1/FEMALE, Route: ORAL, Dose: 0, 10000, 20000 PPM IN DIET FOR 102-104 WK (STUDY DURATION: 102-104 WK), Dose: 0, 10000, 20000 PPM IN DIET FOR 102-104 WK (STUDY DURATION: 102-104 WK), Tumor Site: Type of Lesion: LIVER: CARCINOMA, CARCINOMA OR ADENOMA); “inactive; negative” (Species: MOUSE, Strain/Sex: B6C3F1/MALE, Route: ORAL, Dose: 0, 5000, 10000 PPM IN DIET FOR 102-104 WK (STUDY DURATION: 102-104 WK), Dose: 0, 5000, 10000 PPM IN DIET FOR 102-104 WK (STUDY DURATION: 102-104 WK)); “inactive; negative” (Species: RAT, Strain/Sex: F344/FEMALE, Route: ORAL, Dose: 0, 10000, 20000 PPM IN DIET FOR 102-104 WK (STUDY DURATION: 102-104 WK), Dose: 0, 10000, 20000 PPM IN DIET FOR 102-104 WK (STUDY DURATION: 102-104 WK)); “inactive; negative” (Species: RAT, Strain/Sex: F344/MALE, Route: ORAL, Dose: 0, 10000, 20000 PPM IN DIET FOR 102-104 WK (STUDY DURATION: 102-104 WK), Dose: 0, 10000, 20000 PPM IN DIET FOR 102-104 WK (STUDY DURATION: 102-104 WK)).
On to `O=c1[nH]cc(N(CCCl)CCCl)c(=O)[nH]1`, for which the carcinogen call by setting is: (Species: MOUSE, Strain/Sex: STRAIN-A/MALE,FEMALE, Route: INTRAPERITONEAL, Dose: 0.18-12 MG/KG IN 12 DOSES OVER 4 WK, Tumor Site: Type of Lesion: LUNG: ADENOMA) “active; positive”; (Species: MOUSE, Strain/Sex: STRAIN-A/MALE,FEMALE, Route: INTRAPERITONEAL, Dose: 8, 20, 40 MG/KG FOR 7 DOSES OVER 24 WK, Dose: 8, 20, 40 MG/KG FOR 7 DOSES OVER 24 WK, Tumor Site: Type of Lesion: LUNG: ADENOMA) “active; positive”; (Species: RAT, Strain/Sex: STRAIN-CD/FEMALE, Route: INTRAPERITONEAL, Dose: 0.15, 0.3 MG/KG 3/WK FOR 6 MO, Tumor Site: Type of Lesion: LYMPHATIC SYSTEM: LYMPHOMA, PERITONEAL CAVITY: SARCOMA, MAMMARY GLAND: CARCINOMA, OVARIES: CARCINOMA, Tumor Site: Type of Lesion: LYMPHATIC SYSTEM: LYMPHOMA, PERITONEAL CAVITY: SARCOMA, MAMMARY GLAND: CARCINOMA, OVARIES: CARCINOMA) “active; positive”; (Species: RAT, Strain/Sex: STRAIN-CD/MALE, Route: INTRAPERITONEAL, Dose: 0.15, 0.3 MG/KG 3/WK FOR 6 MO, Tumor Site: Type of Lesion: LYMPHATIC SYSTEM: LYMPHOMA, PANCREAS, PERITONEAL CAVITY: SARCOMA, Tumor Site: Type of Lesion: LYMPHATIC SYSTEM: LYMPHOMA, PANCREAS, PERITONEAL CAVITY: SARCOMA) “active; positive”.
Take `O=C(c1ccccc1)c1ccccc1`: the carcinogen call is “active; positive (ntp describes as some evidence); ntp describes results in liver as equ” (Species: Mouse, Strain/Sex: B6C3F1/Female, Route: Oral, Dose: 0, 312, 625, 1250 ppm in feed for 105 wks, Dose: 0, 312, 625, 1250 ppm in feed for 105 wks, Tumor Site: Type of Lesion: Histiocytic sarcoma: (0/50, 0/50, 5/50, 3/50) Liver: Hepatocellular adenoma (5/50, 4/50, 10/50, 8/50)); “active; positive (ntp describes as some evidence)” (Species: Mouse, Strain/Sex: B6C3F1/Male, Route: Oral, Dose: 0, 312, 625, 1250 ppm in feed for 105 wks, Dose: 0, 312, 625, 1250 ppm in feed for 105 wks, Tumor Site: Type of Lesion: Liver: Hepatocellular adenoma (11/50, 15/50, 23/50, 23/50), Hepatocellular adenoma, hepatocellular carcinoma, or hepatob); “equivocal; mononuclear cell leukemia and histiocytic sarcoma incidences describe” (Species: Rat, Strain/Sex: F344/N/Female, Route: Oral, Dose: 0, 312, 625, 1250 ppm in feed for 105 wks, Dose: 0, 312, 625, 1250 ppm in feed for 105 wks, Tumor Site: Type of Lesion: Mononuclear cell leukemia: (19/50, 25/50, 30/50, 29/50) Histiocytic sarcoma: (0/50, 0/50, 1/50, 2/50) Mammary gland: fib); “active; positive trend for renal tubule adenoma (ntp describes as some evidence); mononu” (Species: Rat, Strain/Sex: F344/N/Male, Route: Oral, Dose: 0, 312, 625, 1250 ppm in feed for 105 wks, Dose: 0, 312, 625, 1250 ppm in feed for 105 wks, Tumor Site: Type of Lesion: Kidney: Renal tubule adenoma (1/50, 1/10, 2/50, 4/50), Mononuclear cell leukemia: (27/50, 41/50, 39/50, 24/50)).
Regarding `CC1CN(N=O)CCC1=O` (stereo unspecified), the carcinogen call (Species: RAT, Strain/Sex: F344/FEMALE, Route: ORAL, Dose: 0, 80 ML OF SOLUTION OF 126 MG/L IN NEUTRAL DEIONIZED DRINKING WATER 5 D/WK FOR 26 WK (STUDY DURATION: 40 WK), Tumor Site: Type of Lesion: NASAL CAVITY: SQUAMOUS CELL CARCINOMA, TONGUE: TUMOR, FORESTOMACH: TUMOR, ESOPHAGUS: TUMOR, TRACHEA: TUMOR, Tumor Site: Type of Lesion: NASAL CAVITY: SQUAMOUS CELL CARCINOMA, TONGUE: TUMOR, FORESTOMACH: TUMOR, ESOPHAGUS: TUMOR, TRACHEA: TUMOR) was “active; positive”.
